Reference: the NIST ThermoML archive (doi:10.1021/je800026p)

Test: xn = mol fraction of the nth substance listed
Conditions: 101 kPa, Liquid; for speed of sound: Sing-around technique in a fixed-path interferometer; for mass density: Vibrating tube method

CCCCCCOCCOCCO [2-(2-hexyloxyethoxy)ethanol] + CCCCN(CCCC)CCCC
Conditions | mass density, 288.15 K [kg/m3] | mass density, 293.15 K [kg/m3] | mass density, 298.15 K [kg/m3] | mass density, 303.15 K [kg/m3] | mass density, 308.15 K [kg/m3] | speed of sound, 288.15 K [m/s] | speed of sound, 293.15 K [m/s] | speed of sound, 298.15 K [m/s] | speed of sound, 303.15 K [m/s] | speed of sound, 308.15 K [m/s]
x1 = 0.1168 | 797.427 | 793.696 | 789.759 | 785.812 | 782.055 | 1294 | 1274.9 | 1256 | 1237.3 | 1219
x1 = 0.1659 | 804.49 | 800.716 | 796.756 | 792.8 | 788.975 | 1298.2 | 1279.2 | 1260.3 | 1241.7 | 1223.4
x1 = 0.2092 | 810.815 | 806.993 | 803.027 | 799.078 | 795.2 | 1302.1 | 1283.1 | 1264.3 | 1245.8 | 1227.5
x1 = 0.2589 | 818.158 | 814.291 | 810.334 | 806.371 | 802.458 | 1306.8 | 1287.9 | 1269.2 | 1250.8 | 1232.5
x1 = 0.3155 | 826.596 | 822.69 | 818.738 | 814.795 | 810.825 | 1312.6 | 1293.8 | 1275.2 | 1256.8 | 1238.6
x1 = 0.3564 | 832.755 | 828.829 | 824.867 | 820.924 | 816.944 | 1316.9 | 1298.2 | 1279.7 | 1261.4 | 1243.2
x1 = 0.383 | 836.791 | 832.842 | 828.881 | 824.93 | 820.957 | 1319.8 | 1301.2 | 1282.7 | 1264.5 | 1246.4
x1 = 0.4544 | 847.683 | 843.729 | 839.761 | 835.783 | 831.821 | 1328 | 1309.5 | 1291.2 | 1273.2 | 1255.2
x1 = 0.5108 | 856.418 | 852.463 | 848.467 | 844.479 | 840.528 | 1334.9 | 1316.5 | 1298.3 | 1280.4 | 1262.6
x1 = 0.5568 | 863.63 | 859.691 | 855.668 | 851.665 | 847.701 | 1340.7 | 1322.4 | 1304.3 | 1286.5 | 1268.8
x1 = 0.6107 | 872.206 | 868.299 | 864.217 | 860.198 | 856.228 | 1347.7 | 1329.6 | 1311.6 | 1294 | 1276.4
x1 = 0.6683 | 881.543 | 877.641 | 873.531 | 869.475 | 865.486 | 1355.6 | 1337.5 | 1319.7 | 1302.2 | 1284.8
x1 = 0.6924 | 885.505 | 881.587 | 877.468 | 873.41 | 869.396 | 1358.9 | 1340.9 | 1323.2 | 1305.8 | 1288.4
x1 = 0.7544 | 895.808 | 891.893 | 887.746 | 883.674 | 879.592 | 1367.8 | 1350 | 1332.3 | 1315.2 | 1297.8
x1 = 0.7963 | 902.873 | 898.935 | 894.791 | 890.73 | 886.574 | 1373.9 | 1356.2 | 1338.7 | 1321.6 | 1304.4
x1 = 0.858 | 913.335 | 909.366 | 905.245 | 901.206 | 896.983 | 1383.2 | 1365.7 | 1348.3 | 1331.5 | 1314.2
x1 = 0.9079 | 921.784 | 917.773 | 913.7 | 909.674 | 905.434 | 1390.9 | 1373.6 | 1356.4 | 1339.6 | 1322.3
x1 = 0.9553 | 929.676 | 925.674 | 921.63 | 917.622 | 913.46 | 1398.4 | 1381.3 | 1364.2 | 1347.6 | 1330.2
